Several values for one entry are separate records, joined by “and”; a condition that tells them apart may be missing. Equal entries are not always repeated.
Assays:
NR3C3 (PR) = settings: cited from earlier work
HEK293T cells [1] = assay: Cytotoxicity: apoptosis induction (caspase-3/7 DEVD fluorogenic DNA dye); settings: HEK293T, 24 h, apoptotic cell count normalized to 0.1% DMSO, single replicates
Experimental: Cells were incubated with the test compounds at the indicated concentrations solubilized with 0.1% DMSO for 24 h. Growth-rate was determined based on the change in confluence over 24 h normalized to the change in confluence of cells treated with the 0.1% DMSO control (n = 10). Metabolic activity was determined with a water-soluble tetrazolium-8 (WST-8) assay (n = 8) after 24 h treatment. Apoptotic cells were detected with a fluorogenic DNA dye coupled to the caspase-3/7 recognition sequence (DEVD) after 24 h treatment and the apoptotic cell count was normalized to 0.1% DMSO treated cells (n = 6).
HEK293T cells (German Collection of Microorganisms and Cell Culture GmbH, DSMZ; #ACC305) were cultured in DMEM high glucose, supplemented with 10% fetal calf serum (FCS), sodium pyruvate (1 mM), penicillin (100 µ/mL) and streptomycin (100 µg/mL) at 37 °C and 5% (v/v) CO2, and seeded in pre-coated (10 µg/mL collagen G solution (Merck KgaA; #L7213) for 30 min at 37 °C) 96-well plates (2 × 10^5 cells per well). After 24 h, the cells were treated with the respective NR3 CG compound candidate at the recommended concentration, bexarotene (100 µM) or doxorubicin (30 µM) as positive controls in DMEM high glucose supplemented with 0.1% FCS, penicillin (100 µ/mL), streptomycin (100 µg/mL) and 0.1% DMSO, or 0.1% DMSO alone as an untreated control. Each sample was prepared in at least four biologically independent replicates. […] Thereafter, the medium was aspirated and the cells were incubated for 3 h with 90 µL DMEM high glucose supplemented with 0.2% FCS, penicillin (100 µ/mL) and streptomycin (100 µg/mL) and additionally containing 10 µL Cell Counting Kit 8 solution (CCK-8; MedChemExpress, Monmouth Junction, New York, USA; #HY-K0301), and absorbance was measured at 1 h, 2 h and 3 h of incubation at 450 nm on a Tecan Spark Cyto to assess metabolic activity of the cells. Before drug administration, after the first medium exchange, 24 h after drug administration, and after fluorescence imaging cell confluence was assessed using the Tecan Spark Cyto, to account for changes in cell confluence due to drug administration and cell handling. Compound effects on cell confluence, apoptosis, metabolic activity and necrosis were normalized to the vehicle control of each biological replicate individually.

BRD4 = biological target: T1, BRD4 (Homo sapiens, UniProt O60885); assay: Liability panel screening by DSF: BRD4; type: binding; settings: DSF, 20 µM, n=2
T1 construct: This panel comprised ten highly ligandable kinases and bromodomains; made in house
Outline: (§1)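 ∆Tm in K was taken from Boltzmann-fitted unfolding inflection points, run in duplicate with a temperature ramp of 3 °C per minute up to 85 °C. Each recombinant protein (2 µM) was in HEPES 10 mM pH 7.5 and NaCl 500 mM, with SYPRO Orange dye at 1:1000.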

HEK293T cells [2] = assay: Cytotoxicity: growth-rate (change in confluence over 24 h); settings: normalized to 0.1% DMSO control, single replicates (n=1...)
ABL1 = biological target: T2, ABL1 (Homo sapiens, UniProt P00519); assay: Liability panel screening by DSF: ABL1; type: binding; settings: DSF, 20 µM, n=2
T2 construct: made in house
Outline: as §1

[3] = tested on: ATF6 activity in Hela ATF6 reporter cells; assay: Endoplasmic reticulum stress assay (ATF6 Renilla luciferase reporter, tunicamycin); type: cell-based; settings: single replicates n=1 to n=5
Outline: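 HeLa ATF6 Renilla reporter cells were pretreated 4 h with compounds in 0.1% DMSO, then stimulated with tunicamycin (100 ng/mL) for 18 h. Renilla luminescence (DualGlo) was normalized to 0.1% DMSO control; five independent experiments.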

[4] = known off-target outside the NR family at the recommended concentration; ref Supplementary Table 1 (superscript references); cited from earlier work
HEK293T cells [5] = assay: Cytotoxicity: metabolic activity (WST-8 / CCK-8 assay); settings: HEK293T, 24 h, WST-8, normalized to 0.1% DMSO, single replicates
BRPF1 = biological target: T3, BRPF1 (Homo sapiens, UniProt P55201); assay: Liability panel screening by DSF: BRPF1; type: binding
T3 construct: This panel comprised ten highly ligandable kinases and bromodomains; made in house
T3 sequence (P55201 628-732 limits assumed): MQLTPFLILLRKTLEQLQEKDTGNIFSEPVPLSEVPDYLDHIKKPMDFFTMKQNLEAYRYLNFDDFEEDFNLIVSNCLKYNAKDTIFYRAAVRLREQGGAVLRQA
Outline: as §1

[6] = tested on: NF-κB activity in HEK293 NF-κB reporter cells; assay: NF-kB activity assay (GFP reporter, ionomycin/PMA); type: cell-based; settings: n=3
Outline: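 HEK293 NF-κB GFP reporter cells given compound in 0.1% DMSO for 4 h, then stimulated with ionomycin 100 ng/mL plus PMA 10 ng/mL. Imaged every 90 min over 24 h; GFP-positive cell count normalized to confluence, three independent biological replicates.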

FGFR3 = biological target: T4, FGFR3 (Homo sapiens, UniProt P22607); assay: Liability panel screening by DSF: FGFR3; type: binding; settings: DSF, 20 µM, n=2
T4 construct: made in house
Outline: as §1

CDK2 = biological target: T5, CDK2 (Homo sapiens, UniProt P24941); assay: Liability panel screening by DSF: CDK2; type: binding; settings: DSF, 20 µM, n=2
T5 construct: made in house
Outline: as §1

MAPK1 = biological target: T6, MAPK1 (Homo sapiens, UniProt P28482); assay: Liability panel screening by DSF: MAPK1; type: binding; settings: DSF, 20 µM, n=2
T6 construct: made in house
Outline: as §1

NR3C1 (GR) = settings: ref Supplementary Table 1, cited from earlier work
TRIM24 = biological target: T7, TRIM24 (Homo sapiens, UniProt O15164); assay: Liability panel screening by DSF: TRIM24; type: binding; settings: DSF, 20 µM, n=2
T7 construct: This panel comprised ten highly ligandable kinases and bromodomains; made in house
T7 sequence (O15164 899-1004 limits assumed): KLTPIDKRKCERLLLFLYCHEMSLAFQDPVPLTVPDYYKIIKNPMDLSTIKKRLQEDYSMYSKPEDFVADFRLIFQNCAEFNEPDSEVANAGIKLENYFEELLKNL
Outline: as §1

HEK293T cells [7] = assay: Cytotoxicity: necrosis induction (red fluorescent dye for permeable plasma membranes); type: cell-based; settings: 24 h, necrotic cell count normalized to 0.1% DMSO, single replicates;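 further: compounds applied in DMEM high glucose with 0.1% FCS and 0.1% DMSO, necrotic HEK293T cells counted by red staining of cells whose plasma membranes had become permeable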
GSK3B = biological target: T8, GSK3B (Homo sapiens, UniProt P49841); assay: Liability panel screening by DSF: GSK3B; type: binding; settings: DSF, 20 µM, n=2
T8 construct: made in house

AURKA = biological target: T9, AURKA (Homo sapiens, UniProt O14965); assay: Liability panel screening by DSF: AURKA; type: binding; settings: DSF, 20 µM, n=2
T9 construct: made in house
T9 sequence (O14965 1-403): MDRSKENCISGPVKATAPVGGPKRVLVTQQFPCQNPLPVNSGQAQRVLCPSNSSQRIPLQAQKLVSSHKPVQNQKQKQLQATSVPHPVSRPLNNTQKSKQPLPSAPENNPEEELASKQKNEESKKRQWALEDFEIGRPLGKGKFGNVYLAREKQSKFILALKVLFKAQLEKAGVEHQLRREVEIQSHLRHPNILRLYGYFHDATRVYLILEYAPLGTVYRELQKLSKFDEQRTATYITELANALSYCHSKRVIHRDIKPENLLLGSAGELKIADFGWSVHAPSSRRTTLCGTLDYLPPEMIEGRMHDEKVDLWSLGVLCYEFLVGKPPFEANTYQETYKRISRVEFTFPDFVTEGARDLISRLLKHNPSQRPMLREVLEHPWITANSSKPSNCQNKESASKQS
Outline: as §1

CSNK1D = biological target: T10, CSNK1D (Homo sapiens, UniProt P48730); assay: Liability panel screening by DSF: CSNK1D; type: binding; settings: DSF, 20 µM, n=2
T10 construct: made in house
Outline: as §1

NR3C4 (AR) = settings: ref Supplementary Table 1, cited from earlier work
NR3C2 (MR) = settings: (lit.); ref Supplementary Table 1; read-out: Potency [nM] EC50, NR3C2 (MR); cited from earlier work

T6 sequence (P28482 whole entry, species assumed): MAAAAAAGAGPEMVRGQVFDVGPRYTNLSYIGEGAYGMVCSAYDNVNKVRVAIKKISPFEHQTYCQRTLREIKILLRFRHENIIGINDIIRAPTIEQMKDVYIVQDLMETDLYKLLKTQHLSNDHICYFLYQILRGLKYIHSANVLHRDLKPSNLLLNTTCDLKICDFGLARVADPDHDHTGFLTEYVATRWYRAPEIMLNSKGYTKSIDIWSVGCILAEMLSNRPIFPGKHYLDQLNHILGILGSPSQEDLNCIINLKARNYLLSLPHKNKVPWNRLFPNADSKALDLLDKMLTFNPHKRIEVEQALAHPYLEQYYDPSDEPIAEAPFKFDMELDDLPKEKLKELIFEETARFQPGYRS
T4 sequence (P22607 23-806, species assumed): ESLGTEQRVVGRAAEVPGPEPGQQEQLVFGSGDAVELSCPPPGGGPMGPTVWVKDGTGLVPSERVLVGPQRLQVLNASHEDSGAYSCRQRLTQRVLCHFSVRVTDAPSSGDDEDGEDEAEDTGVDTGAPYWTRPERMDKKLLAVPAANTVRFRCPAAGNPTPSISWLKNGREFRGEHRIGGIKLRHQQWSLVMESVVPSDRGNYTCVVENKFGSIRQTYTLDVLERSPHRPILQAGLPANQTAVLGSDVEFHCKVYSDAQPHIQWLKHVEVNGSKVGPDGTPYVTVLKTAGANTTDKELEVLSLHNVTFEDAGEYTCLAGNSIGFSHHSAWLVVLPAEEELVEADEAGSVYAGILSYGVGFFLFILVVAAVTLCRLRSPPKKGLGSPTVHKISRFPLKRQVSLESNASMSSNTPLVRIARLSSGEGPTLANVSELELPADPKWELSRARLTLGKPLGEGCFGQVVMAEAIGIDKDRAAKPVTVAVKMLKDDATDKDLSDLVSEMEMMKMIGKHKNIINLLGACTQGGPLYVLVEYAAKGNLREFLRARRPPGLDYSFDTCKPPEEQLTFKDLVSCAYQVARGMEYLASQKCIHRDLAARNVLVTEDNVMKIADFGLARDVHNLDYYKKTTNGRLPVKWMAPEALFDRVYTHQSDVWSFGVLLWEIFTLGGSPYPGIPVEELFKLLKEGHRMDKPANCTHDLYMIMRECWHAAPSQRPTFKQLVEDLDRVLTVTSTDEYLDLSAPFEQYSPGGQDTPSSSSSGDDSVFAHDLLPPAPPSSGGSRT
T10 sequence (P48730 whole entry, species assumed): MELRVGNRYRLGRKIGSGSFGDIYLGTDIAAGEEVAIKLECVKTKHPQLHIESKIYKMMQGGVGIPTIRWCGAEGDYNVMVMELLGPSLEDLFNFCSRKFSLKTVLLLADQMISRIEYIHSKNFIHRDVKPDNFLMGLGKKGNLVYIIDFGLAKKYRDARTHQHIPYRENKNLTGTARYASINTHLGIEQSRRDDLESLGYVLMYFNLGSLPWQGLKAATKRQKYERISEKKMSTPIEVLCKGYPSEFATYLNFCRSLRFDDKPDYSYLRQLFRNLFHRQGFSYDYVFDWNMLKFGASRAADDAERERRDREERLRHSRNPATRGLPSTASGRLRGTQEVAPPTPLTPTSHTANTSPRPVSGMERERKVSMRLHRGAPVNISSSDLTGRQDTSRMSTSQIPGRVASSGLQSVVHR
T2 sequence (P00519 whole entry, species assumed): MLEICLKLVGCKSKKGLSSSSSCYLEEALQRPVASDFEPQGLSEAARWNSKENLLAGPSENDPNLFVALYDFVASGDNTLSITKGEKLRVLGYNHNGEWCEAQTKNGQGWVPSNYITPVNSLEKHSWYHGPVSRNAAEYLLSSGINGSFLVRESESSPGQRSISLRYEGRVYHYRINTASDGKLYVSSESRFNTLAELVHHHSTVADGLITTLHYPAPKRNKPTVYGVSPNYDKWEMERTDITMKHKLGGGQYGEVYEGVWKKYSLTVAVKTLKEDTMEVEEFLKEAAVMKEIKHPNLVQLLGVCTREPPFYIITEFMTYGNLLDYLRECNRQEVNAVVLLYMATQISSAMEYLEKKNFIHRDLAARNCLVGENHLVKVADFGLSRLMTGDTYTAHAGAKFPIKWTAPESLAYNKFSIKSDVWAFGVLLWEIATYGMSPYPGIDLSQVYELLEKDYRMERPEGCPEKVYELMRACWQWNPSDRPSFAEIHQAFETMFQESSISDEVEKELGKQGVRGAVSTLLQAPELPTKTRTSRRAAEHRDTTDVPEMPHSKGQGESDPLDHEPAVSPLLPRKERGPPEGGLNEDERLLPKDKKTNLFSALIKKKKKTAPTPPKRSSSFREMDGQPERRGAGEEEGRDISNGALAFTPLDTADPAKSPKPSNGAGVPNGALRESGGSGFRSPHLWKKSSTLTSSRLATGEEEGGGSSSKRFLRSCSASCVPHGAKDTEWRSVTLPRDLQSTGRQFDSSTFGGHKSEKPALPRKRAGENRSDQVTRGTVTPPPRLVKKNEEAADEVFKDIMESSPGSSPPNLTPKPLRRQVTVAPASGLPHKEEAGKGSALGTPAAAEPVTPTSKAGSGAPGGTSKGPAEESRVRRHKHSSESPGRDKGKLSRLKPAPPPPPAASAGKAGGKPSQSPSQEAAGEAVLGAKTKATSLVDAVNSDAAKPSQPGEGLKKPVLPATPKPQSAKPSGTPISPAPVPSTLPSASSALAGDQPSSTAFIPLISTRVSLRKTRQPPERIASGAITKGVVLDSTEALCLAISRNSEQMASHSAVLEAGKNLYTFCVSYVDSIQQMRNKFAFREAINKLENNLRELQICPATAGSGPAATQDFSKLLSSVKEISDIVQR
T8 sequence (P49841 whole entry, species assumed): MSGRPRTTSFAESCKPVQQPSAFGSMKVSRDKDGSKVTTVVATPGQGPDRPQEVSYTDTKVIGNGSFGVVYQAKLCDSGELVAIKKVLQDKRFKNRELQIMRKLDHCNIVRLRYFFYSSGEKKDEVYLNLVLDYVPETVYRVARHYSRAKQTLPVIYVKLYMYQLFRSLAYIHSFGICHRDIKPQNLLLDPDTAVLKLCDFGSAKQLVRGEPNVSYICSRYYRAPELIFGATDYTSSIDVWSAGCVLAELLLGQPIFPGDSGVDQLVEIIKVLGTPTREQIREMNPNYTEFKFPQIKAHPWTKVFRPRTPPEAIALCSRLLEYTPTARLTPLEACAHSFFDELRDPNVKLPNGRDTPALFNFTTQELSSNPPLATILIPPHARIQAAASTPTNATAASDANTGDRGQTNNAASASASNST

Medroxyprogesterone
EC50 (NR3C3 (PR); (lit.), ref Supplementary Table 1, read-out: Potency [nM] EC50, NR3C3 (PR)): 0.15 ± 0.05 nM | rel. activity from literature, NR3C3 (PR): % of PGN (NR3C3 (PR); of PGN (progesterone)): 80 ± 7% | Apoptosis induction [AI] (HEK293T cells [1]; 0.3 µM): 0.76 and 0.77 and 1.07 and 0.74 (2×) and 0.88 | Mean ΔTM BRD4 (BRD4): -1.17 K | Growth rate [GR] (HEK293T cells [2]; 0.3 µM): 0.94 and 1.01 and 1.09 and 1.40 and 1.04 (2×) and 0.87 and 1.11 and 0.76 and 1.34 | Mean ΔTM ABL1 (ABL1): -0.24 K | ER stress [rel. ATF6 activity] ([3]; 0.3 µM): 0.98 and 0.97 and 1.05 and 0.94 and 0.96 | Other off-target at recom. conc. [4]: 17β-HSD2 and 17β-HSD3 and 17β-HSD1 | Metabolic activity [MA] (HEK293T cells [5]; 0.3 µM): 0.94 and 1.01 and 0.93 and 1.08 | Mean ΔTM BRPF1 (BRPF1; DSF, 20 µM, n=2): 0.25 K | Mean NFκB response ([6]; 0.3 µM, 1,5 h): 2817.45 GFP+-cells/confluence ∙ 1000 | Mean NFκB response ([6]; 0.3 µM, 4,5 h): 3349.18 GFP+-cells/confluence ∙ 1000 | Mean NFκB response ([6]; 0.3 µM, 7,5 h): 6986.39 GFP+-cells/confluence ∙ 1000 | Mean NFκB response ([6]; 0.3 µM, 10,5 h): 17788.45 GFP+-cells/confluence ∙ 1000 | Mean NFκB response ([6]; 0.3 µM, 13,5 h): 26308.75 GFP+-cells/confluence ∙ 1000 | Mean NFκB response ([6]; 0.3 µM, 16,6 h): 32691.58 GFP+-cells/confluence ∙ 1000 | Mean NFκB response ([6]; 0.3 µM, 19,5 h): 37046.67 GFP+-cells/confluence ∙ 1000 | Mean NFκB response ([6]; 0.3 µM, 22,5 h): 41020.00 GFP+-cells/confluence ∙ 1000 | Mean NFκB response ([6]; 0.3 µM, 3 h): 2918.53 GFP+-cells/confluence ∙ 1000 | Mean NFκB response ([6]; 0.3 µM, 6 h): 4035.46 GFP+-cells/confluence ∙ 1000 | Mean NFκB response ([6]; 0.3 µM, 9 h): 12242.08 GFP+-cells/confluence ∙ 1000 | Mean NFκB response ([6]; 0.3 µM, 12 h): 21999.86 GFP+-cells/confluence ∙ 1000 | Mean NFκB response ([6]; 0.3 µM, 15 h): 29772.36 GFP+-cells/confluence ∙ 1000 | Mean NFκB response ([6]; 0.3 µM, 18 h): 34990.00 GFP+-cells/confluence ∙ 1000 | Mean NFκB response ([6]; 0.3 µM, 21 h): 39166.67 GFP+-cells/confluence ∙ 1000 | Mean NFκB response ([6]; 0.3 µM, 24 h): 41696.67 GFP+-cells/confluence ∙ 1000 | Mean ΔTM FGFR3 (FGFR3): -0.32 K | Mean ΔTM CDK2 (CDK2): -0.39 K | Mean ΔTM MAPK1 (MAPK1): 0.18 K | EC50 (NR3C1 (GR); (lit.), read-out: Potency [nM] EC50, NR3C1 (GR)): 10 ± 1 nM | rel. activity from literature, NR3C1 (GR): % of dexamethasone (DXM) (NR3C1 (GR); of dexamet./DXM): 157 ± 22% | Mean ΔTM TRIM24 (TRIM24): -0.75 K | Necrosis induction [NI] (HEK293T cells [7]; 0.3 µM): 0.91 (2×) and 1.04 and 0.81 | Mean ΔTM GSK3B (GSK3B): -0.99 K | Mean ΔTM AURKA (AURKA): 0.0165 K | Mean ΔTM CSNK1D (CSNK1D): -0.11 K | rel. activity from literature, NR3C4 (AR): % of DHT (NR3C4 (AR); of DHT (dihydrotestosterone)): 159 ± 10% | IC50 (NR3C4 (AR); read-out: Potency [nM] IC50, NR3C4 (AR), (lit.)): 6 ± 1 nM

C[C@]12CCC(=O)C=C1CC[C@@H]1[C@@H]2[C@@H](O)C[C@]2(C=O)[C@@H](C(=O)CO)CC[C@@H]12 [Aldosterone]
Apoptosis induction [AI] (HEK293T cells [1]; 1 µM): 0.40 and 0.56 and 0.73 and 0.75 and 0.46 and 0.86 | ΔTm at 20 µM (BRD4; read-out: Mean ΔTM BRD4): 0.17 °C | Growth rate [GR] (HEK293T cells [2]; 1 µM): 0.87 and 0.57 and 0.92 and 1.28 and 0.95 and 0.82 and 0.93 and 0.54 and 0.81 and -0.31 | ΔTm at 20 µM (ABL1; read-out: Mean ΔTM ABL1): -0.26 °C | activity at 1 µM ([3]; Homo sapiens, HeLa, 1 µM, read-out: ER stress [rel. ATF6 activity]): 80% | Metabolic activity [MA] (HEK293T cells [5]; 1 µM): 1.07 (2×) and 1.02 and 0.98 and 1.08 and 0.99 (2×) and 0.93 | ΔTm at 20 µM (BRPF1; read-out: Mean ΔTM BRPF1): -1.02 °C | Mean NFκB response ([6]; 1 µM, 1,5 h): 2799.98 GFP+-cells/confluence ∙ 1000 | Mean NFκB response ([6]; 1 µM, 4,5 h): 3728.04 GFP+-cells/confluence ∙ 1000 | Mean NFκB response ([6]; 1 µM, 7,5 h): 7006.53 GFP+-cells/confluence ∙ 1000 | Mean NFκB response ([6]; 1 µM, 10,5 h): 14006.47 GFP+-cells/confluence ∙ 1000 | Mean NFκB response ([6]; 1 µM, 13,5 h): 19614.51 GFP+-cells/confluence ∙ 1000 | Mean NFκB response ([6]; 1 µM, 16,6 h): 24279.62 GFP+-cells/confluence ∙ 1000 | Mean NFκB response ([6]; 1 µM, 19,5 h): 27366.03 GFP+-cells/confluence ∙ 1000 | Mean NFκB response ([6]; 1 µM, 22,5 h): 29896.67 GFP+-cells/confluence ∙ 1000 | Mean NFκB response ([6]; 1 µM, 3 h): 3180.38 GFP+-cells/confluence ∙ 1000 | Mean NFκB response ([6]; 1 µM, 6 h): 4651.42 GFP+-cells/confluence ∙ 1000 | Mean NFκB response ([6]; 1 µM, 9 h): 10914.09 GFP+-cells/confluence ∙ 1000 | Mean NFκB response ([6]; 1 µM, 12 h): 17161.43 GFP+-cells/confluence ∙ 1000 | Mean NFκB response ([6]; 1 µM, 15 h): 22438.14 GFP+-cells/confluence ∙ 1000 | Mean NFκB response ([6]; 1 µM, 18 h): 25981.67 GFP+-cells/confluence ∙ 1000 | Mean NFκB response ([6]; 1 µM, 21 h): 28773.18 GFP+-cells/confluence ∙ 1000 | Mean NFκB response ([6]; 1 µM, 24 h): 30941.17 GFP+-cells/confluence ∙ 1000 | ΔTm at 20 µM (FGFR3; read-out: Mean ΔTM FGFR3): -0.16 °C | ΔTm at 20 µM (CDK2; read-out: Mean ΔTM CDK2): -0.06 °C | ΔTm at 20 µM (MAPK1; read-out: Mean ΔTM MAPK1): 0.17 °C | ΔTm at 20 µM (TRIM24; read-out: Mean ΔTM TRIM24): -0.91 °C | Necrosis induction [NI] (HEK293T cells [7]; 1 µM): 0.75 and 0.67 and 0.68 and 0.72 | ΔTm at 20 µM (GSK3B; read-out: Mean ΔTM GSK3B): -0.23 °C | EC50 (NR3C2 (MR)): 0.34 ± 0.04 nM | ΔTm at 20 µM (AURKA; read-out: Mean ΔTM AURKA): 0.1 °C | ΔTm at 20 µM (CSNK1D; read-out: Mean ΔTM CSNK1D): -2.48e-05 °C
